Assay results: US6716968B2, “Apoptosis-related compounds and their use” (Peviva AB, priority 1997, dated 2004)
Ends that are not written are not given here.

Tested on: monoclonal antibody M30
Experiment: ELISA reactivity of synthetic peptides with monoclonal antibody M30
Assay type: binding, mouse
Details: for Absorbance at 405/492 nm: biotin-capped peptide attached to streptavidin coated plates, ELISA with MAb M30; for relative activity (binding to mAb M 30 in ELISA): SEQ ID NO: 1 set at 100
Excerpt: These peptides having the amino acid sequences SEQ ID NO: 2 and 3 have been synthesized, and in an ELISA they bind to the mAb M 30 [relative activity: 100 for SEQ ID NO: 1; 11 for SEQ ID NO: 2; and 8.3 for SEQ ID NO: 3, respectively]. However, these two peptides are not expected to represent cleaved fragments of CK18 specific for apoptosis, since the mAb M 30 cannot bind to CK18 fragments until they expose the neo-epitope having the C-terminal sequence Ala Leu Asp.
The oligopeptides made in order to illustrate the invention were synthesized using the multipin peptide synthesis approach using polyethylene supports derivatized with an acid handle (Cf. Valerio, R. M., Bray, A. M. and Maeji, N. J. (1994) Multiple peptide synthesis on acid-labile handle derivatized polyethylene supports. Int. J. Peptide Protein Res. 44:158-165.). The synthesis was carried out on detachable pins grafted with hydroxyethylmethacrylate and functionalized with the trifluoroacetic acid-labile Rink amide forming handle. Peptides representing both the N and C terminal truncation series of the sequence EDFNLGDALD (SEQ ID NO:1) and other sequences were synthesized. Peptides were capped with biotin using the tetra peptide linker sequence—SGSG- or —SGSB- (B=βalanine), and attached to streptavidin coated plates in the enzyme-linked immunosorbent assay.
In order to characterize the MAb M30-epitope chemically, the M30was tested against a large number of synthetic peptides, that were especially made for this purpose.

| Substance | Absorbance at 405/492 nm | relative activity (binding to mAb M 30 in ELISA) | activity (reactivity with MAb M30) in words (truncation series of Table 1) |
| --- | --- | --- | --- |
| DALD (OTHER INFORMATION: Description of Artificial Sequence: epitope from mammalian protein) [Peptide 406] | 0.1 |  |  |
| DFNLGDALD (OTHER INFORMATION: Description of Artificial Sequence: epitope from mammalian protein) [Peptide 401] | 0.62 |  |  |
| DGEDFNLGDALD (OTHER INFORMATION: Description of Artificial Sequence: epitope from mammalian protein) [Peptide 46] | 0.77 |  |  |
| EDFNLGDALD (OTHER INFORMATION: Description of Artificial Sequence: epitope from mammalian protein) [Peptide 301] | 1.46 |  |  |
| EDFNLGDALD [SEQ ID NO: 1] |  | 100 | maximal activity |
| EDGEDFNLGDALD (OTHER INFORMATION: Description of Artificial Sequence: epitope from mammalian protein) [Peptide 45] | 1.05 |  |  |
| EDGEDFNLGDALDSSNSMQT [SEQ ID NO: 2] |  | 11 |  |
| FNLGDALD (OTHER INFORMATION: Description of Artificial Sequence: epitope from mammalian protein) [Peptide 402] | 0.27 |  |  |
| GDALD (OTHER INFORMATION: Description of Artificial Sequence: epitope from mammalian protein) [Peptide 405] | 0.1 |  |  |
| GEDFNLGDALD [47] (OTHER INFORMATION: Description of Artificial Sequence: epitope from mammalian protein) [Peptide 47] | 1.23 |  |  |
| GEDFNLGDALD [302] (OTHER INFORMATION: Description of Artificial Sequence: epitope from mammalian protein) [Peptide 302] | 1.41 |  |  |
| LEDGEDFNLGDAL (OTHER INFORMATION: Description of Artificial Sequence: epitope from mammalian protein) [Peptide 63] | 0.05 |  |  |
| LEDGEDFNLGDALDS (OTHER INFORMATION: Description of Artificial Sequence: epitope from mammalian protein) [Peptide 61] | 0.1 |  |  |
| LEDGEDFNLGDALDSSNS [SEQ ID NO: 3] |  | 8.3 |  |
| LGDALD (OTHER INFORMATION: Description of Artificial Sequence: epitope from mammalian protein) [Peptide 404] | 0.1 |  |  |
| NLGDALD (OTHER INFORMATION: Description of Artificial Sequence: epitope from mammalian protein) [Peptide 403] | 0.14 |  |  |
